Laboratory results as given in patent US9409952B2, “Peptide-compound cyclization method” (Chugai Seiyaku Kabushiki Kaisha, priority 2011, dated 2016).
Positions of bridges follow the written chain, without caps; N, C: chain ends. Non-standard residues stand in square brackets, D forms with d. Residues, ends and D or L forms follow the SMILES beside them. ξ: configuration not given here. *: point of attachment. NMeF = CN[C@@H](Cc1ccccc1)C(=O)O; NMeI = CC[C@H](C)[C@H](NC)C(=O)O; Cha = N[C@@H](CC1CCCCC1)C(=O)O; NMeL = CN[C@@H](CC(C)C)C(=O)O; Thr(3ξ) = CC(O)[C@H](N)C(=O)O; NMeA = CN[C@@H](C)C(=O)O; Piperidide = C1CCN(*)CC1; {Puro} = puromycin; ξC = NC(CS)C(=O)O; Sar = CNCC(=O)O; tBu = CC(C)(C)*

What was measured:
[1] = 2 h, pH 7.1
[2] = Serum stability test in mouse serum; format: in vitro ADME; details: both sexes, pH 7.4, two hours, read-out: Serum stability t1/2 (Mouse)
Method: (§1) The obtained compound was metabolically reacted at a concentration of 2 uM with mouse serum (male/female mixed, Valley Biomedical, USA) (adjusted to pH 7.4 with 33.5 mM HEPES buffer) for two hours. Deproteinization treatment with acetonitrile was provided over time, the amount of the remaining unchanged compound was analyzed using LC/MS, and the metabolic half-life (t1/2) was calculated. A microsome solution prepared at 0.5 mg protein/mL from mouse hepatic microsome and small intestinal microsome (male, XENOTECH, USA) using 100 mM phosphate buffer (pH 7.4) was metabolically reacted with the compound at a concentration of 1 uM for 30 minutes in the presence or absence of NADPH. Deproteinization treatment with acetonitrile was provided over time, the amount of the remaining unchanged compound was analyzed using LC/MS, and the hepatic-intrinsic clearance (CLh, int) and the small intestinal-intrinsic clearance (CLg, int) were calculated (Table 7). Such peptides were sufficiently slowly metabolized by hydrolysis with peptidases or the like in mouse sera and microsomes, contrary to peptides composed of natural amino acids having low lipophilicity.

[3] = Metabolic stability in mouse hepatic microsome; format: in vitro ADME; details: for Hepatic Microsome CLh, int (Mouse) In the absence of NADPH / microsomal CLint at 1 uM: 0.5 mg protein/mL, 1 uM, 30 minutes; for Hepatic Microsome CLh, int (Mouse) In the absence of NADPH: without NADPH; for Hepatic Microsome CLhint Mouse: Table 8, mouse; for microsomal CLint at 1 uM: male, mouse, liver microsomes, pH 7.4, with NADPH, read-out: Hepatic Microsome CLh, int (Mouse) In the presence of NADPH
[4] = Metabolic stability in mouse small intestinal microsome; format: in vitro ADME; details: Table 8, mouse
Method: as §1
Metabolic stability tests were carried out in the same manner as shown in 2-1.

[5] = Metabolic stability in human hepatic microsome; format: in vitro ADME; details: for microsomal CLint at 1 uM: human, microsomes, pH 7.4, Hepatic Microsome CLhint Human
[6] = Identification of the metabolic site in mouse liver microsome (LC/MS); format: in vitro ADME; details: 10 uM, mouse liver microsome 0.5 mg protein/mL, 1 hour, with NADPH
Method: Compound P-113 cyclized peptide was metabolically reacted at a concentration of 10 uM with a microsome solution prepared at 0.5 mg protein/mL from mouse liver (male, manufactured by XENOTECH, USA) using 100 mM phosphate buffer (pH 7.4) for 1 hour in the presence of NADPH (FIG. 35). After the reaction, deproteinization treatment with acetonitrile was provided, and the resulting metabolites were analyzed with a high resolution LC/MS instrument (Q-TOF Ultima API, manufactured by Waters Corporation, USA). Mass chromatograms of the metabolites are shown below. […] MS/MS spectra of the peaks are shown below, respectively. The metabolites of Peak 1 and Peak 2 were assumed to be hydroxylated in the partial structures containing highly lipophilic side chain cyclohexyl groups. […] The metabolite of Peak 4 was assumed to have a thiol-containing site oxidized. Taking the ease of oxidation of this site into consideration, it was believed that the sulfur atom is likely to be the metabolic site.

[7] = side chain carboxyl group, phenolic hydroxy group or tetrazole; cited from earlier work
[8] = biological target: T1, soluble human IL-6R (IL-6R) (Homo sapiens, UniProt P08887); assay: IL-6/IL-6R interaction by electrochemiluminescence immunoassay (protein denaturation by desulfurization solution); format: binding; details: 25 mM HEPES-K pH 7.6, 200 mM TCEP, 250 mM VA-044, 10 mM Cys, room temperature, 50 minutes
T1 sequence (P08887 20-355 limits assumed): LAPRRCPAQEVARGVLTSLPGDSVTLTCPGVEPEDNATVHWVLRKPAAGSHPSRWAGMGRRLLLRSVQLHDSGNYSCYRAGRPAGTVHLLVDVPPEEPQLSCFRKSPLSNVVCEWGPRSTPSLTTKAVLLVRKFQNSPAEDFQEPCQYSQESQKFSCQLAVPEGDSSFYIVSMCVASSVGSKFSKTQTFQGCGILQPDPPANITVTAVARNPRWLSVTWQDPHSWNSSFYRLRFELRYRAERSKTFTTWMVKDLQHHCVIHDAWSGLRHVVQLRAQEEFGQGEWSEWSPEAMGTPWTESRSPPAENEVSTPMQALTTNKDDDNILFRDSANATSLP
Method: Protein denaturation by a desulfurization reaction solution was evaluated (FIG. 34). As a model system, the effect of the desulfurization reaction condition on IL-6R was evaluated by detecting interaction between IL-6 and IL-6R using electrochemiluminescence immunoassay. First, 750 ng of anti-IL-6R antibody clone No. 17506 (R&D biosystems) was applied to a MSD Multi-array 384-well plate (MSD) and incubated at 4° C. overnight so that the antibody was immobilized on to the plate. The plate was washed with 80 μl of PBST three times to remove the unbound antibody, and blocking was then carried out with 2% skimmed milk for 1 hour. The blocking agent was washed away from the plate with 80 μl of PBST three times, after which 10 μl of 25 nM soluble human IL-6R (IL-6R) was added and the plate was shaken at room temperature for 50 minutes. The plate was washed with 80 μl of PBST three times, a desulfurization reaction solution (25 mM HEPES-K (pH 7.6), 200 mM TCEP, 250 mM VA-044 and 10 mM Cys) was added and the plate was shaken at room temperature for 50 minutes. The plate was washed with 80 μl of PBST three times, 10 μl of human IL-6-BAP (500 nM) was added and the plate was shaken at room temperature for 50 minutes. […] The plate was washed with 80 μl of PBST three times, and 35 μl of 2× read buffer (MSD, R92SC-3) was added, followed by measurement with SECTOR Imager 2400 (MSD) (FIG. 34).

5′-AGCUUAGUCA-puromycin-3′ (3' {Puro}, sugars by position and backbone not given here) [Compound RP-1]
amount of remaining RNA compound under desulfurization reaction condition [1]: not changed

CC[C@H](C)[C@H]1C(=O)N[C@H](C(=O)N2CCCCC2)CSCC(=O)N(C)[C@@H](C)C(=O)N(C)[C@@H](Cc2ccccc2)C(=O)N(C)[C@@H](CC(C)C)C(=O)N[C@@H]([C@@H](C)O)C(=O)N(C)CC(=O)N(C)[C@@H](CC(C)C)C(=O)N[C@@H](COC(C)(C)C)C(=O)N1C [Compound P-109, Ac*-MeAla-MePhe-MeLeu-Thr-MeGly-MeLeu-Ser(tBu)-MeIle-Cys*-piperidine] ({CH2CO}-[NMeA][NMeF][NMeL]T[Sar][NMeL]S(tBu)[NMeI]C-Piperidide; thioether N-9)
half-life at 2 uM [2]: > 60 h
Hepatic Microsome CLh, int (Mouse) In the absence of NADPH [3]: 10.3 ul/min/mg Protein
Hepatic Microsome CLhint Mouse [3]: 57.4 ul/min/mg Protein
microsomal CLint at 1 uM [3]: 57.4 µL/min/mg
Intestinal Microsome CLg, int Mouse [4]: 45.8 ul/min/mg Protein
Hepatic microsome CLhint (Human) In the absence of NADPH [5]: 11 ul/min/mg Protein
Hepatic microsome CLhint (Human) In the presence of NADPH [5]: 158 ul/min/mg Protein
microsomal CLint at 1 uM [5]: 158 µL/min/mg

CC[C@H](C)[C@H]1C(=O)NC(C(=O)N2CCCCC2)CSCC(=O)N(C)[C@@H](Cc2ccccc2)C(=O)N(C)[C@@H](C)C(=O)N(C)[C@@H](Cc2ccccc2)C(=O)N(C)[C@@H](CC(C)C)C(=O)N[C@@H]([C@@H](C)O)C(=O)N(C)CC(=O)N(C)[C@@H](CC(C)C)C(=O)N[C@@H](COC(C)(C)C)C(=O)N1C (stereo partly drawn) [Compound P-112, Ac*-MePhe-MeAla-MePhe-MeLeu-Thr-MeGly-MeLeu-Ser(tBu)-MeIle-Cys*-piperidine] ({CH2CO}-[NMeF][NMeA][NMeF][NMeL]T[Sar][NMeL]S(tBu)[NMeI][ξC]-Piperidide; thioether N-10)
half-life at 2 uM [2]: > 60 h
Hepatic Microsome CLh, int (Mouse) In the absence of NADPH [3]: 17.9 ul/min/mg Protein
Hepatic Microsome CLhint Mouse [3]: 30.4 ul/min/mg Protein
Mouse Hepatic Microsome CLh, int ([3]; Table 9, thioether versus sulfoxide): 30.4 ul/min/mg Protein
microsomal CLint at 1 uM [3]: 30.4 µL/min/mg
Intestinal Microsome CLg, int Mouse [4]: 25.9 ul/min/mg Protein
microsomal CLint at 1 uM [5]: 118 µL/min/mg

CC(C)C[C@@H]1NC(=O)CSC[C@@H](C(=O)N[C@@H](CC2CCCCC2)C(=O)N2CCCCC2)NC(=O)[C@H](C)NC(=O)[C@H](C(C)O)NC(=O)[C@H]([C@@H](C)O)NC(=O)[C@H](CC2CCCCC2)NC(=O)[C@H](C)N(C)C1=O (stereo partly drawn) [Compound P-113, Ac*-Leu-MeAla-Cha-Thr-Thr-Ala-Cys*-Cha-piperidine] ({CH2CO}-L[NMeA][Cha]T[Thr(3ξ)]AC[Cha]-Piperidide; thioether N-7)
metabolites detected [6]: Four peaks corresponding to hydroxides

c1nnn[nH]1 [Tetrazole]
pKa as an acid [7]: 5.6

OC1CSSCC1O (stereo not shown) [oxidized DTT]
effect on interaction between IL-6R and IL-6 [8]: restores the interaction between IL-6R and IL-6
